Columns and labels:
Conditions in all cases: incubation time: 72 h
[1] = tested on: HCC1937; experiment: normalised response (% of control), CellTox Green; higher = less cell death (100 = DMSO, 0 = benzethonium chloride kill control)
In short: (§1)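 Breast cancer cell lines were exposed for 72 h in 384-well plates to compound at 5 concentrations, 10-fold apart, covering a 10,000-fold range fixed for each compound. Plates were read for CellTox Green fluorescence and CellTiter-Glo luminescence and normalised to 0.1 % DMSO (100) and a positive kill control (0). Each value is the normalised signal at one concentration of the series.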

[2] = tested on: DU-4475; experiment: as above
In short: as §1

[3] = tested on: CAL-120; experiment: as above
In short: as §1

[4] = tested on: Hs578T; experiment: as above
In short: as §1

[5] = tested on: MCF-10A; experiment: as above
In short: as §1

[6] = tested on: HCC1599; experiment: as above
In short: as §1

[7] = tested on: MDA-MB-436; experiment: as above
In short: as §1

[8] = tested on: MDA-MB-468; experiment: as above
In short: as §1

[9] = tested on: MDA-MB-231; experiment: as above
In short: as §1

[10] = tested on: BT-474; experiment: as above
In short: as §1

[11] = tested on: CAL-148; experiment: as above
In short: as §1

[12] = tested on: CAL-51; experiment: as above
In short: as §1

[13] = tested on: HCC1143; experiment: as above
In short: as §1

[14] = tested on: BT-549; experiment: as above
In short: as §1

[15] = tested on: CAL-85-1; experiment: as above
In short: as §1

[16] = tested on: HDQ-P1; experiment: as above
In short: as §1

[17] = tested on: MDA-MB-453; experiment: as above
In short: as §1

[18] = tested on: MFM-223; experiment: as above
In short: as §1

[19] = tested on: HCC1937; experiment: normalised response (% of control), CellTiter-Glo; higher = more viable cells (100 = DMSO, 0 = benzethonium chloride kill control)
In short: as §1

[20] = tested on: DU-4475; experiment: as above
In short: as §1

[21] = tested on: CAL-120; experiment: as above
In short: as §1

[22] = tested on: Hs578T; experiment: as above
In short: as §1

[23] = tested on: MCF-10A; experiment: as above
In short: as §1

[24] = tested on: HCC1599; experiment: as above
In short: as §1

[25] = tested on: MDA-MB-436; experiment: as above
In short: as §1

[26] = tested on: MDA-MB-468; experiment: as above
In short: as §1

[27] = tested on: SK-BR-3; experiment: as above
In short: as §1

[28] = tested on: MDA-MB-231; experiment: as above
In short: as §1

[29] = tested on: BT-474; experiment: as above
In short: as §1

[30] = tested on: CAL-148; experiment: as above
In short: as §1

[31] = tested on: CAL-51; experiment: as above
In short: as §1

[32] = tested on: HCC1143; experiment: as above
In short: as §1

[33] = tested on: BT-549; experiment: as above
In short: as §1

[34] = tested on: CAL-85-1; experiment: as above
In short: as §1

[35] = tested on: HDQ-P1; experiment: as above
In short: as §1

[36] = tested on: MDA-MB-453; experiment: as above
In short: as §1

[37] = tested on: MFM-223; experiment: as above
In short: as §1

SMILES | normalised response [1] | normalised response [2] | normalised response [3] | normalised response [4] | normalised response [5] | normalised response [6] | normalised response [7] | normalised response [8] | normalised response [9] | normalised response [10] | normalised response [11] | normalised response [12] | normalised response [13] | normalised response [14] | normalised response [15] | normalised response [16] | normalised response [17] | normalised response [18] | normalised response [19] | normalised response [20] | normalised response [21] | normalised response [22] | normalised response [23] | normalised response [24] | normalised response [25] | normalised response [26] | normalised response [27] | normalised response [28] | normalised response [29] | normalised response [30] | normalised response [31] | normalised response [32] | normalised response [33] | normalised response [34] | normalised response [35] | normalised response [36] | normalised response [37]
C[C@]12CC[C@H](O)CC1=CC[C@@H]1[C@@H]2CC[C@]2(C)C(c3cccnc3)=CC[C@@H]12 [Abiraterone] (500 nM) | 123% | 101% | 99.1% | 114% | 102% | 110% | 88.8% | 92% | 127% | 103% | 94.8% | 101% | 104% | 135% | 96% | 108% | 104% | 104% | 98.7% | 105% | 97.1% | 106% | 112% | 107% | 96% | 98% | 103% | 105% | 90.7% | 105% | 65.6% | 98.8% | 99.1% | 104% | 99.2% | 99.3% | 101%
Cn1cncc1[C@@](N)(c1ccc(Cl)cc1)c1ccc2c(c1)c(-c1cccc(Cl)c1)cc(=O)n2C [Tipifarnib] (1000 nM) | 45.6% | 95.6% | 97.4% | 108% | 73.9% | 90.8% | 94.4% | 105% | 103% | 100% | 96% | 57.2% | 110% | 136% | 98.8% | 102% | 107% | 101% | 74.5% | 66.4% | 79.4% | 80.6% | 86.9% | 111% | 65.1% | 74.9% | 59.4% | 90.6% | 80.5% | 66.8% | 52.2% | 80.5% | 75.1% | 110% | 76.4% | 73.8% | 73.8%
CO[C@H]1C[C@@H]2CC[C@@H](C)[C@@](O)(O2)C(=O)C(=O)N2CCCC[C@H]2C(=O)O[C@H]([C@H](C)C[C@@H]2CC[C@@H](OCCO)[C@H](OC)C2)CC(=O)[C@H](C)/C=C(\C)[C@@H](O)[C@@H](OC)C(=O)[C@H](C)C[C@H](C)/C=C/C=C/C=C/1C [Everolimus] (10 nM) | 114% | 96% | 101% | 85.6% | 106% | 91.6% | 81.7% | 178% | 103% | 99.8% | 88% | 97.5% | 109% | 51% | 109% | 105% | 104% | 71.1% | 69.7% | 68.2% | 64.9% | 71.9% | 79.2% | 88.8% | 77.8% | 52.1% | 53.7% | 85.7% | 80.7% | 51.9% | 61.6% | 62.6% | 64.9% | 67.1% | 78.7% | 55.2% | 62.6%
NS(=O)(=O)OC[C@@H]1C[C@@H](n2ccc3c(N[C@H]4CCc5ccccc54)ncnc32)C[C@@H]1O [Pevonedistat] (1000 nM) | 72.7% | 76.2% | 96.4% | 85% | 115% | 95% | 80.8% | 49.4% | 106% | 101% | 104% | -16% | 96.1% | 85% | 86.6% | 104% | 99.4% | 102% | 83.3% | 0.82% | 61.9% | 73.2% | 107% | 40% | 34.6% | 33% | 35.5% | 71% | 63.6% | 118% | 21.2% | 61.2% | 34.6% | 49.9% | 89.3% | 80.6% | 59.5%
Nc1ncnc2c1c(COc1cccc(Cl)c1)nn2C1CCOCC1 (1000 nM) | 124% | 108% | 103% | 104% | – | 74.4% | 107% | 99.3% | 115% | 98.3% | 105% | 118% | 119% | 96.5% | 108% | 114% | 110% | 103% | 103% | 102% | 111% | 97.1% | 104% | 113% | 106% | 96.6% | 107% | 104% | 104% | 102% | 105% | 104% | 88.6% | 93.4% | 107% | 103% | 104%
O=C(O)CCCc1ccc(N(CCCl)CCCl)cc1 [Chlorambucil] (1000 nM) | 85.3% | 102% | 98.5% | 108% | – | 96.9% | 93.3% | 103% | 103% | 98.2% | 104% | 113% | 98.2% | 115% | 110% | 103% | 100% | 95.5% | 95% | 105% | 94.7% | 105% | 102% | 91.9% | 103% | 101% | 101% | 99.8% | 96.7% | 95.5% | 108% | 100% | 111% | 103% | 97.4% | 102% | 103%
CC(C)c1c(C(=O)Nc2ccccc2)c(-c2ccccc2)c(-c2ccc(F)cc2)n1CC[C@@H](O)C[C@@H](O)CC(=O)O [Atorvastatin] (1000 nM) | 88.3% | 101% | 98.2% | 97.4% | 83.6% | 100% | 96.6% | 87.3% | 34% | 99.9% | 103% | – | 114% | 97.4% | 110% | 103% | 94.1% | 89.4% | 96.6% | 99.9% | 90.5% | 101% | 84% | 95.6% | 92.6% | 93.2% | 102% | 59.1% | 66.1% | 105% | 90.2% | 93.4% | 95.6% | 91.9% | 74.8% | 99.4% | 99.1%
CNNCc1ccc(C(=O)NC(C)C)cc1 [Procarbazine] (1000 nM) | 105% | 104% | 106% | 101% | 107% | 95% | 98% | 84% | 104% | 101% | 104% | 103% | 123% | 107% | 95.4% | 104% | 70.8% | – | 105% | 94.8% | 102% | 109% | 105% | 101% | 104% | 105% | 110% | 107% | 98.1% | 104% | 78.5% | 104% | 98.7% | 102% | 103% | 100% | 101%
